The source of these data is US20020042393A1, “Excipient” (priority 1998, published 2002).

Molecules are shown by their SMILES.

Holding throughout (type): physicochemical
Data set [1] in a line: Proportion of particles of 75 μm or more (Air Jet Sieve). As to conditions: excipient powder. On the procedure: Five grams of trehalose was weighed onto a screen having a screen opening of 75 μm, and sifted with Air Jet Sieve (Model 200LS, mfd. by ALPINE) for 5 minutes, and the weight percentage of the weight of particles remaining on the screen based on the total weight of particles was calculated as the proportion of particles of 75 μm or more.

The nature of data set [2]: Average particle size (sieving, 50% cumulative weight). As to conditions: excipient powder. On the procedure:
Five grams of trehalose was sifted through screens having screen openings of 500 μm, 300 μm and 250 μm, respectively, and then sifted with Air Jet Sieve by using screens having screen openings of 150 μm, 75 μm, 45 μm, 38 μm and 32 μm, respectively. The oversize particle weight percentage [%] was calculated for each screen, and the average particle size is expressed as a particle size corresponding to a cumulative weight percentage of 50%.

A short description of data set [3]: Apparent specific volume. As to conditions: excipient powder. From the text:
The whole of 10 g of trehalose powder was gently poured into a 100-ml measuring cylinder without making an impact (in this case, a cylinder having an outside diameter smaller than the inside diameter of the measuring cylinder was placed in the measuring cylinder, and it was slowly lifted after pouring the trehalose), and the apparent specific volume was expressed as a value obtained by dividing the read volume by the weight of the trehalose.

Data set [4] can be described thus: Angle of repose (Sugiwara's instrument). As to conditions: excipient powder. The text has this: Measured by means of a Sugiwara's instrument for measuring angle of repose (Yakuzaigaku 27, p. 260, 1965).
Data set [5] is described as follows: Whiteness of powder (color analyzer). Conditions: excipient powder. How it is done: (§1) For powder of trehalose or a pharmaceutical composition containing trehalose, values of L, a and b were measured with a color analyzer (TC-1800MKII, mfd. by Tokyo Denshoku Co., Ltd.), and the whiteness of the trehalose or pharmaceutical composition was calculated by the following equation: […]

Data set [6] is described as follows: Water content (Karl Fisher) of tablets before and after storage. Conditions: tablets compressed at 500 kg/cm^2. How it is done: Determined as a value obtained by measuring about 0.1 g of trehalose and determining its water content by the Karl Fisher method.
One hundred grams of commercial “Trehaose” (available from Hayashibara Biochemical Laboratories, Inc.) was dissolved in water to a concentration of about 35 wt %, and the resulting solution was concentrated under reduced pressure with heating at 60° C. so as to have a concentration of about 75 wt %, and allowed to stand at room temperature to precipitate crystals, which were washed with 50 ml of water. Glucose was removed by carrying out the above purification procedure once or twice, to increase the trehalose purity. Trehalose A was obtained by carrying out the purification procedure twice to obtain crystals, drying the crystals, grinding the dried crystals with a bantam mill (number of revolutions 15,000 rpm, feed rate 5 kg/hr, and screen opening 2.0 mmφ), and then sifting the ground crystals through a […]. Trehalose B was obtained by carrying out the purification procedure once to obtain crystals, drying the crystals, grinding the dried crystals with a bantam mill (number of revolutions 10,000 rpm, feed rate 5 kg/hr, and screen opening 2.00 mmφ), and then sifting the ground crystals through a 350-μm screen. Trehalose C was obtained by carrying out the purification procedure once to obtain crystals, drying the crystals, grinding the dried crystals with a bantam mill (number of revolutions 8,000 rpm, feed rate 5 kg/hr, and screen opening 2.0 mmφ), and then sifting the ground crystals through a 350-μm screen. […] Each of trehaloses A to C was compressed into tablets at a compression pressure of 500 kg/cm^2, and the tablet hardness immediately after the compression and the tablet hardness after standing for 3 days in an atmosphere of 40° C. and 75% RH after the compression were compared.
“Trehaose” (available from Hayashibara Bioscience Laboratories Co., Ltd.) was purified once by the method described in Example 1 to obtain crystals, which were dried, ground with a bantam mill (number of revolutions 12,000 rpm, feed rate 5 kg/hr, and screen opening 2.0 mmφ) and then dried at 105° C. for 4 hours to obtain trehalose anhydrous crystals. These crystals were compressed into tablets at a compression pressure of 500 kg/cm^2, and the tablet hardnesses of the tablets were compared in the same manner as in Example 1.

Data set [7] in a line: Tablet hardness (Schleuniger hardness meter).
Data set [8] is described as follows: Change in whiteness of excipient mixed with drug at 40° C. and 75% RH (reactivity). How it is done:
as §1
One gram of each of the trehaloses obtained in Example 1 and 1 g of isoniazid were mixed and then allowed to stand in an atmosphere of 40° C. and 75% RH, and the change in whiteness of the trehalose was observed. On the other hand, 1 g of each of the trehaloses obtained in Example 1 and 1 g of aminophyline were mixed and then allowed to stand in an atmosphere of 40° C. and 75% RH, and the change in whiteness of the trehalose was observed.
One gram of 100-mesh lactose (available from De Melkindustrie Veghel bv) or 1 g of Mannit S (available from Tohwa Kasei Co., Ltd.) and 1 g of aminophyline were mixed and then allowed to stand in an atmosphere of 40° C. and 75% RH, and the change in whiteness of the lactose or Mannit S was observed.
As a starting material. […]

A short description of data set [9]: Disintegration time according to Japanese Pharmacopoeia. On the procedure:
The disintegration time of each of six molded products was measured by the use of ion-exchanged water according to the disintegration time measuring method prescribed in the 13th revised Japanese Pharmacopoeia, and the average of measured values was calculated.

Data set [10] in a line: Consolidation of powder during storage. Conditions: compared with trehaloses B and C.
A short description of data set [11]: Colour change of molded product stored at 40° C. for 3 months. As to conditions: Example 9 process molded product in glass bottle. On the procedure: This molded product and the rapidly disintegrable molded product obtained in Example 9 by using the trehalose B were placed in separate glass bottles, respectively, and stored at 40° C. for 3 months.
Setting [12] is: Example 10: as Example 9 but molded at 60 kg/cm^2, listed as A.
Where [13] appears, read: ascorbic acid tablets (Example 12), compression pressure 500 kg/cm^2.
[14] abbreviates: ascorbic acid tablets (Example 12), compression pressure 800 kg/cm^2.
The mark [15] stands for this setting: Example 10: as Example 9 but molded at 60 kg/cm^2, listed as B.

For `OC[C@H]1O[C@H](O[C@H]2O[C@H](CO)[C@@H](O)[C@H](O)[C@H]2O)[C@H](O)[C@@H](O)[C@@H]1O` [Trehalose A, trehalose], the “Proportion of particles of 75 μm or more” value in data set [1] (listed as A) came to 15%. Further, in data set [2] (listed as A), the Average particle size amounted to 35 μm. In addition, in data set [3] (listed as A), the Apparent specific volume turned out to be 3.1 cm^3/g. For the same molecule, the Angle of repose in data set [4] (listed as A) is 48 °. In addition, the Whiteness in data set [5] (listed as A) turned out to be 98%; in data set [8] (1 g excipient + 1 g aminophyline, 0 day, listed as A), 100%; in [8] (1 g excipient + 1 g aminophyline, 40° C. and 75% RH, 1 month, listed as A), 98%; in data set [8] (1 g excipient + 1 g isoniazid, 0 day, listed as A) it was 98%; in data set [8] (1 g excipient + 1 g isoniazid, 40° C. and 75% RH, 1 month, listed as A), 97%. Further, the Water content in data set [6] (0 day, listed as A) is 9.7%; in data set [6] (3 days at 40° C. and 75% RH), 9.8%. Also, the Tablet hardness in [7] (Example 8: molded product of trehalose only, molded at 30 kg/cm^2, dried overnight at 40° C., listed as A) is given as 7.5 kg; in data set [7] (setting [12]), 10.2 kg; in [7] (setting [13]), 4.0 kgf; in data set [7] (setting [14]) it was 7.0 kgf; in data set [7] (process of Example 9: 950 g excipient + 50 g phenylpropanolamine hydrochloride, molded at 30 kg/cm^2, listed as A), 7.0 kg; in data set [7] (tablets compressed at 500 kg/cm^2, 0 day (immediately after compression), listed as A), 2.6 kgf. The Tablet hardness in [7] (tablets compressed at 500 kg/cm^2, 3 days at 40° C. and 75% RH, listed as A) was determined as 2.5 kgf. Besides, the “Disintegration time according to Japanese Pharmacopoeia” value turned out to be 15 s in [9] (Example 8: molded product of trehalose only, 30 kg/cm^2, listed as A); 52 s in data set [9] (setting [12]); 17 s in data set [9] (setting [13]); 25 s in data set [9] (setting [14]); 16 s in data set [9] (process of Example 9: 950 g excipient + 50 g phenylpropanolamine hydrochloride, 30 kg/cm^2, listed as A). Besides, in [10], the Consolidation during storage entry was “consolidated during storage”.

For the molecule `OC[C@H]1O[C@H](O[C@H]2O[C@H](CO)[C@@H](O)[C@H](O)[C@H]2O)[C@H](O)[C@@H](O)[C@@H]1O` [Trehalose B, trehalose], the “Proportion of particles of 75 μm or more” value in data set [1] (listed as B) is recorded as 46%. In [2] (listed as B), this molecule registered an Average particle size of 72 μm. The Apparent specific volume in data set [3] (listed as B) worked out at 2.2 cm^3/g. The same molecule had an Angle of repose in data set [4] (listed as B) of 42 °. The Whiteness in data set [5] (listed as B) worked out at 97%; in [8] (1 g excipient + 1 g aminophyline, 0 day, listed as B), 99%; in [8] (1 g excipient + 1 g aminophyline, 40° C. and 75% RH, 1 month, listed as B), 97%; in data set [8] (1 g excipient + 1 g isoniazid, 0 day, listed as B), 98%; in data set [8] (1 g excipient + 1 g isoniazid, 40° C. and 75% RH, 1 month, listed as B) it was 96%. The molecule further came in with a Water content in data set [6] (0 day, listed as B) of 9.8%. Also, the Tablet hardness is 6.6 kg in [7] (Example 8: molded product of trehalose only, molded at 30 kg/cm^2, dried overnight at 40° C., listed as B); 9.4 kg in data set [7] (setting [15]); 6.5 kg in data set [7] (process of Example 9: 950 g excipient + 50 g phenylpropanolamine hydrochloride, molded at 30 kg/cm^2, listed as B); 2.5 kgf in [7] (tablets compressed at 500 kg/cm^2, 0 day (immediately after compression), listed as B); 2.4 kgf in data set [7] (tablets compressed at 500 kg/cm^2, 3 days at 40° C. and 75% RH, listed as B). Further, the “Disintegration time according to Japanese Pharmacopoeia” value in [9] (Example 8: molded product of trehalose only, 30 kg/cm^2, listed as B) was 12 s; in [9] (setting [15]) it was 45 s; in data set [9] (process of Example 9: 950 g excipient + 50 g phenylpropanolamine hydrochloride, 30 kg/cm^2, listed as B), 14 s. Besides, the “Change in color of molded product” value in data set [11] is listed as “somewhat yellowed”.
